Legend:
[1] = tested on: Tyrosine-protein kinase ABL1 (Homo sapiens), P00519 [F317I]; assay: Inhibition of phosphorylated ABL1 F317I mutant (unknown origin) assessed as residual activity at 1000 nM by KINOMEscan analysis relative to control
[2] = tested on: Epidermal growth factor receptor (Homo sapiens), P00533 [G719S]; assay: Inhibition of EGFR G719S mutant (unknown origin) assessed as residual activity at 1000 nM by KINOMEscan analysis relative to control
[3] = target: Tyrosine-protein kinase Fer (Homo sapiens) (UniProt P16591); assay: Inhibition of FER (unknown origin) assessed as residual activity at 1000 nM by KINOMEscan analysis relative to control
[4] = target: T1, Serine/threonine-protein kinase haspin (Homo sapiens) (UniProt Q8TF76); assay: Inhibition of HASPIN (unknown origin) assessed as residual activity at 1000 nM by KINOMEscan analysis relative to control
T1 sequence (whole entry): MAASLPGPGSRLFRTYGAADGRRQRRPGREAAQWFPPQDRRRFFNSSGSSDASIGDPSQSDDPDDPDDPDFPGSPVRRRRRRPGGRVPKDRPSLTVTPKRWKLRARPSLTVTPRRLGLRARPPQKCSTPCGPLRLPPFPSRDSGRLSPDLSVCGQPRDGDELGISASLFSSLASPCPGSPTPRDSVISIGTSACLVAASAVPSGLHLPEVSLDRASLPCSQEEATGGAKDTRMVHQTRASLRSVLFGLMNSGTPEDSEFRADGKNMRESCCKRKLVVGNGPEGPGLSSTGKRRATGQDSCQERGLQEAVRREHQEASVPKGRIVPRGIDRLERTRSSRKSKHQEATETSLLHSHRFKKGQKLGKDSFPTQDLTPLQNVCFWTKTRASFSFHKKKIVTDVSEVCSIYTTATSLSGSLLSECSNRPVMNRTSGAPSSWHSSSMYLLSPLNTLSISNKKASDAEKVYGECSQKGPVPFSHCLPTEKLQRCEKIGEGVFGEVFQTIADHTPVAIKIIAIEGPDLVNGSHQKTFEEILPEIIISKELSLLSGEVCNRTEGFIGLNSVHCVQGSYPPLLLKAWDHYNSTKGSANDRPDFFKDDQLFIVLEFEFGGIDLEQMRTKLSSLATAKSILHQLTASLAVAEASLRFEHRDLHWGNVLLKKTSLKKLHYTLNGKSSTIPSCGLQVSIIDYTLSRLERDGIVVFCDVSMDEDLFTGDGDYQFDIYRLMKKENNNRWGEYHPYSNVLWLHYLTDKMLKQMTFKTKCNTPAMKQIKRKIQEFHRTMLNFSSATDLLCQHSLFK

[5] = tested on: Mast/stem cell growth factor receptor Kit (Homo sapiens), P10721 [A829P]; assay: Inhibition of KIT A829P mutant (unknown origin) assessed as residual activity at 1000 nM by KINOMEscan analysis relative to control
Chain of Mast/stem cell growth factor receptor Kit (Homo sapiens), P10721 [A829P] (P10721 whole entry A829P): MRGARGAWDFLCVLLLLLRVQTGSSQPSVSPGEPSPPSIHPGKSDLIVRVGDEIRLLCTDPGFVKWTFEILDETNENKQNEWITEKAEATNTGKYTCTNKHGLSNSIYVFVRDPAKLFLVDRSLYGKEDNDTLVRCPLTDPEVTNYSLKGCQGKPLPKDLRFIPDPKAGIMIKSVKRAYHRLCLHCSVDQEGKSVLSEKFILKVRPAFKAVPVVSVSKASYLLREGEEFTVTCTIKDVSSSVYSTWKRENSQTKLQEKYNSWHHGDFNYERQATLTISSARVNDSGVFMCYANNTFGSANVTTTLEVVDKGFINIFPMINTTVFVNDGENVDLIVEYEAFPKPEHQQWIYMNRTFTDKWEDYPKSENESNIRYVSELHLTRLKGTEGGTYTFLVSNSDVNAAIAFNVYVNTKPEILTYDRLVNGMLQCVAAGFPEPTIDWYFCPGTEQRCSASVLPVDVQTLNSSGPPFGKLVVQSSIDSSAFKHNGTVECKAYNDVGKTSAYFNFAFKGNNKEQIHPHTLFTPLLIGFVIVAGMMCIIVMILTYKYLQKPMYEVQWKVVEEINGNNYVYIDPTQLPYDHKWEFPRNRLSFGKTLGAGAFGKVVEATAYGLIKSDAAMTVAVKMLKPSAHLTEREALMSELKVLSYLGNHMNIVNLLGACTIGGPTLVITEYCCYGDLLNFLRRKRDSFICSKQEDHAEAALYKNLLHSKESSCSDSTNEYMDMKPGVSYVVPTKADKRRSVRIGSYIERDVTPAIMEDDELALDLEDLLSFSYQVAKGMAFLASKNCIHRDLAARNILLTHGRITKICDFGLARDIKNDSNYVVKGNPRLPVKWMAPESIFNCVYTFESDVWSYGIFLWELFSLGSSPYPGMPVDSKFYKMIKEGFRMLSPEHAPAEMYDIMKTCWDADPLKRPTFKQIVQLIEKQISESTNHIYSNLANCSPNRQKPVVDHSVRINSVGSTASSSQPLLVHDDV

[6] = target: Serine/threonine-protein kinase Nek7 (Homo sapiens) (UniProt Q8TDX7); assay: Inhibition of NEK7 (unknown origin) assessed as residual activity at 1000 nM by KINOMEscan analysis relative to control
Chain of Serine/threonine-protein kinase Nek7 (Homo sapiens) (Q8TDX7 whole entry, looked up): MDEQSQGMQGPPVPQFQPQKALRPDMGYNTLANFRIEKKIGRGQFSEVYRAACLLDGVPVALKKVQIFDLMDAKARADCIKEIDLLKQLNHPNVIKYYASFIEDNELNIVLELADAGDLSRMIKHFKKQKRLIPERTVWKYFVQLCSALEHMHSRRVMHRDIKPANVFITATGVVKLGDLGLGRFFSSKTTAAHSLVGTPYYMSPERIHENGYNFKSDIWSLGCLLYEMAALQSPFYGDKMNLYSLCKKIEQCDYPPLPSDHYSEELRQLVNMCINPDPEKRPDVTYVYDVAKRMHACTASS

[7] = target: T2, Mitogen-activated protein kinase 12 (Homo sapiens) (UniProt P53778); assay: Inhibition of p38-gamma (unknown origin) assessed as residual activity at 1000 nM by KINOMEscan analysis relative to control
T2 sequence (whole entry): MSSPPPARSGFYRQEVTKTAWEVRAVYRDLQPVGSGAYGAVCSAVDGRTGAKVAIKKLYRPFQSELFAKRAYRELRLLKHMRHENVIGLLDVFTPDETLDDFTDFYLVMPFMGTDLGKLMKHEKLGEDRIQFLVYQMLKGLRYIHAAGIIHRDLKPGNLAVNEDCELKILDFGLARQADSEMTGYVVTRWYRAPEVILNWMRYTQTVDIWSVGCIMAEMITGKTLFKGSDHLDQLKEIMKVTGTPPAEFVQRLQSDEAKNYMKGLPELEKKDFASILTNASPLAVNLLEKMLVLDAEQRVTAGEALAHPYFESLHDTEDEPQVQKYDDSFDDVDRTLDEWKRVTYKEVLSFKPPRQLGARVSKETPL

[8] = target: Phosphatidylinositol 4,5-bisphosphate 3-kinase catalytic subunit gamma isoform (Homo sapiens) (UniProt P48736); assay: Inhibition of PIK3CG (unknown origin) assessed as residual activity at 1000 nM by KINOMEscan analysis relative to control
[9] = target: Phosphatidylinositol 4-phosphate 5-kinase type-1 alpha (Homo sapiens) (UniProt Q99755); assay: Inhibition of PIP5K1A (unknown origin) assessed as residual activity at 1000 nM by KINOMEscan analysis relative to control
Chain of Phosphatidylinositol 4-phosphate 5-kinase type-1 alpha (Homo sapiens) (Q99755 whole entry): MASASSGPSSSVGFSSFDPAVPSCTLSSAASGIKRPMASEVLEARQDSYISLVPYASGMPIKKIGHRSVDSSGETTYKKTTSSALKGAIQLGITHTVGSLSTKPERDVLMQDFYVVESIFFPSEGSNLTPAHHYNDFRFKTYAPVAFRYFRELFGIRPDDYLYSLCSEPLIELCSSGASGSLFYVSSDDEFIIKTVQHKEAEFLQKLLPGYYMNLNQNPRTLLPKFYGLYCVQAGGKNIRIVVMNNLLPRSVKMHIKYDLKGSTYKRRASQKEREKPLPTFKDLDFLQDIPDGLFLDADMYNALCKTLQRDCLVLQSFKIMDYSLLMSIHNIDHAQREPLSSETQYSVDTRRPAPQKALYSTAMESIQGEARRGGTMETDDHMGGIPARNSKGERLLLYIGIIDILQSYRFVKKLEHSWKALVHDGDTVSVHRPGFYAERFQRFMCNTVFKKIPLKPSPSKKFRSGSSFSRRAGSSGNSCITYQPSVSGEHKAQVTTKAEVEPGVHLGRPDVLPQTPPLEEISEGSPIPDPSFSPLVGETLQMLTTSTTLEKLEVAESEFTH

[10] = target: T3, Serine/threonine-protein kinase RIO1 (Homo sapiens) (UniProt Q9BRS2); assay: Inhibition of RIOK1 (unknown origin) assessed as residual activity at 1000 nM by KINOMEscan analysis relative to control
T3 sequence (whole entry): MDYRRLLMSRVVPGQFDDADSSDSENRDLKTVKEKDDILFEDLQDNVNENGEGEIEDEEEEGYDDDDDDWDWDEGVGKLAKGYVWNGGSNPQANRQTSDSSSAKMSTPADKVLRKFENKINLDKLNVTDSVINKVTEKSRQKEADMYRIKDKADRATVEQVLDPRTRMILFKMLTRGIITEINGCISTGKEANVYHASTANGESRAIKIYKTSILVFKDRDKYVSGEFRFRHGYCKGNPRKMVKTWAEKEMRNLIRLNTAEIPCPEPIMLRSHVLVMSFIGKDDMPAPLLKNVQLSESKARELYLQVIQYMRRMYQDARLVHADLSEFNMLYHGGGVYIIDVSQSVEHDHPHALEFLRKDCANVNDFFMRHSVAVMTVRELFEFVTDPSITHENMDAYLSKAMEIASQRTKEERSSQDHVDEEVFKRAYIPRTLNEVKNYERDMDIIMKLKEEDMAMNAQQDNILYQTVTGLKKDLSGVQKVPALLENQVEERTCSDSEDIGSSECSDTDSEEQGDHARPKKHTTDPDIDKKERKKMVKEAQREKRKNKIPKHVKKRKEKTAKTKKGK

[11] = target: Ribosomal protein S6 kinase alpha-2 (Homo sapiens) (UniProt Q15349); assay: Inhibition of N-terminal RSK3 […] domain 1 (unknown origin) assessed as residual activity at 1000 nM by KINOMEscan analysis relative to control
Chain of Ribosomal protein S6 kinase alpha-2 (Homo sapiens) (Q15349 whole entry): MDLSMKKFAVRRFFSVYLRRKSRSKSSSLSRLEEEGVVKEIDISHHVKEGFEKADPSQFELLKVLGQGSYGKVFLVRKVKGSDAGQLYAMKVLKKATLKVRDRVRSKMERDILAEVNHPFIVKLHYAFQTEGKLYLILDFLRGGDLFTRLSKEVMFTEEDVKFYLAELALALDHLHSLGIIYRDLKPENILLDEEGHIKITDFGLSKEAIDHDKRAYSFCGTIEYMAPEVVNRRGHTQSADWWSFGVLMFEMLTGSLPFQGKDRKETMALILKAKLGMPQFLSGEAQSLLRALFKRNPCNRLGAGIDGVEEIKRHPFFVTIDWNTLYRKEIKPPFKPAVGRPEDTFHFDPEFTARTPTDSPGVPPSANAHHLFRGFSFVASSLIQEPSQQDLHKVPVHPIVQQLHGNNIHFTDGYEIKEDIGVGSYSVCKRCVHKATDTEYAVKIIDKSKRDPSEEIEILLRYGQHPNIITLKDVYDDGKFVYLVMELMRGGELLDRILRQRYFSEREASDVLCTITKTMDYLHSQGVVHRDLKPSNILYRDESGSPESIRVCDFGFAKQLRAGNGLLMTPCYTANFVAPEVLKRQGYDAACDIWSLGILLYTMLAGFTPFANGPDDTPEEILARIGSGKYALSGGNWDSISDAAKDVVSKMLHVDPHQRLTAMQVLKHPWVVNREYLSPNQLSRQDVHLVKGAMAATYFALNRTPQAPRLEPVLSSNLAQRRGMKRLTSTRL

[12] = target: Mitogen-activated protein kinase kinase kinase 14 (Homo sapiens) (UniProt Q99558); assay: Inhibition of NIK (unknown origin) assessed as residual activity at 1000 nM by KINOMEscan analysis relative to control
Chain of Mitogen-activated protein kinase kinase kinase 14 (Homo sapiens) (Q99558 whole entry, looked up): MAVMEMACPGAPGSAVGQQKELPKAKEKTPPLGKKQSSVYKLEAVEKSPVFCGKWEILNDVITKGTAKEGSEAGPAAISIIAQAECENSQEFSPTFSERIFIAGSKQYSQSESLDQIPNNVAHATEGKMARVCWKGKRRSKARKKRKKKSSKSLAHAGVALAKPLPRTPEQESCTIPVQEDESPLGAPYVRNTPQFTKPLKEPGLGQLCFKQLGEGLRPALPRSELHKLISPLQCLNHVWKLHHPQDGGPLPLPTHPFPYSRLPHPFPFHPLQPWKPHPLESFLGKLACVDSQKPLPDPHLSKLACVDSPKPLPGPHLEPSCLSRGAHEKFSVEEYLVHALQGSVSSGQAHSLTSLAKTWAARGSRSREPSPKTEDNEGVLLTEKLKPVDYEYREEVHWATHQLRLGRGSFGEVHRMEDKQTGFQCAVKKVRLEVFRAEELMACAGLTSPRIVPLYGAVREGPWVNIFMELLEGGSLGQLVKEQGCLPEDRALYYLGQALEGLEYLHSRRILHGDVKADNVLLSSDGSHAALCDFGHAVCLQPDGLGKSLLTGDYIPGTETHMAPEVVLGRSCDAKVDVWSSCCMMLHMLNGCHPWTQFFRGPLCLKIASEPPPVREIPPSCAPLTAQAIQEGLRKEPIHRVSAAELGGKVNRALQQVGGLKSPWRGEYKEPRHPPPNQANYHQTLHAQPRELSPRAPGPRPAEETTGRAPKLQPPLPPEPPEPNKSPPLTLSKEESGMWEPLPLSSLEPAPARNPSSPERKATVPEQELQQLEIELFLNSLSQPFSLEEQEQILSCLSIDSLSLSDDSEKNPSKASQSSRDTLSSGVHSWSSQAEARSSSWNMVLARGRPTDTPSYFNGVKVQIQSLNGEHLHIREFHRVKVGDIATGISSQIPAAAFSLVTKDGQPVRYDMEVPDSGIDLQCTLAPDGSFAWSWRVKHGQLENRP

Chain of Tyrosine-protein kinase ABL1 (Homo sapiens), P00519 [F317I] (P00519 whole entry F317I): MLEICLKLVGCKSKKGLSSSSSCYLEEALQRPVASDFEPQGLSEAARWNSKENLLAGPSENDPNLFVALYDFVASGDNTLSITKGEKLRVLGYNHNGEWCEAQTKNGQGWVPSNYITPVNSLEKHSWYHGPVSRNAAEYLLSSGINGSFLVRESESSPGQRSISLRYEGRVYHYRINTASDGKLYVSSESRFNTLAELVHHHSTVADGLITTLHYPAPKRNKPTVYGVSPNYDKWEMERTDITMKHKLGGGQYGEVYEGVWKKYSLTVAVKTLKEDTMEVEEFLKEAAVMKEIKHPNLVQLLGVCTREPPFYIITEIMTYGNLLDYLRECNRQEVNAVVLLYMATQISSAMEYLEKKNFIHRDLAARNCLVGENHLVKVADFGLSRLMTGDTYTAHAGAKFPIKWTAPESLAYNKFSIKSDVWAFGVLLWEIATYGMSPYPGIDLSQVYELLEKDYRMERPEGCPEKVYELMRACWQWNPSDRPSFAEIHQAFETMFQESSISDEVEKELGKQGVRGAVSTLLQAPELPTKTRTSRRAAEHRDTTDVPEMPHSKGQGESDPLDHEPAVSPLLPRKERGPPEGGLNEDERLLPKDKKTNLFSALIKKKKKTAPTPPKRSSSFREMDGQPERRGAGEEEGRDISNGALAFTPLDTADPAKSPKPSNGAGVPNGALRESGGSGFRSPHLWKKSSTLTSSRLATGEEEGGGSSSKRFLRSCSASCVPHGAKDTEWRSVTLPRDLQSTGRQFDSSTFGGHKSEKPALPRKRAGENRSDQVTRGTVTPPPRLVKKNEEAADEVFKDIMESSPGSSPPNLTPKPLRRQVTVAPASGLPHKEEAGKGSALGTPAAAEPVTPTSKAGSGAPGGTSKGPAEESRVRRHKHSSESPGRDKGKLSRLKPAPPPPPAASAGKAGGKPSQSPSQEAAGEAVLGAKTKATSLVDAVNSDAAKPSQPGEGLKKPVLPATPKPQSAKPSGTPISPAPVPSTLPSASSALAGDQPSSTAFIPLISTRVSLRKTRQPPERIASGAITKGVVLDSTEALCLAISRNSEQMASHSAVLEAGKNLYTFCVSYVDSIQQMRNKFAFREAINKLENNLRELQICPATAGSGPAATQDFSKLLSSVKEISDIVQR

| SMILES | Activity [1] [%] | Activity [2] [%] | Activity [3] [%] | Activity [4] [%] | Activity [5] [%] | Activity [6] [%] | Activity [7] [%] | Activity [8] [%] | Activity [9] [%] | Activity [10] [%] | Activity [11] [%] | Activity [12] [%] |
| --- | --- | --- | --- | --- | --- | --- | --- | --- | --- | --- | --- | --- |
| COc1cc2nc(C)nc(N[C@H](C)c3cccc(-c4cn[nH]c4)c3)c2cc1OC | 75 | 76 | 99 | 81 | 93 | 89 | 52 | 97 | 93 | 49 | 94 | 88 |
| COc1cc2ncnc(N[C@H](C)c3cccc4ccccc34)c2cc1OC | 71 | 1.2 | 97 | 99 | 94 | 100 | 91 | 83 | 90 | 82 | 100 | 91 |

Source: ChEMBL document CHEMBL5678818, “Discovery of potent SOS1 inhibitors that block RAS activation via disruption of the RAS-SOS1 interaction” (Proc Natl Acad Sci U S A, 2019)
